{"source": "ChEMBL document CHEMBL1201862", "about": "“PubChem BioAssay data set” (2004)", "test_in_all_cases": "NCI tumour cell line growth inhibition, 48 h", "key": {"HL-60": {"test_system": "HL-60"}, "ACHN": {"test_system": "ACHN"}, "SF-539": {"test_system": "SF-539"}, "UO-31": {"test_system": "UO-31"}, "SK-MEL-5": {"test_system": "SK-MEL-5"}, "DU-145": {"test_system": "DU-145"}, "SNB-75": {"test_system": "SNB-75"}, "OVCAR-3": {"test_system": "OVCAR-3"}, "UACC-62": {"test_system": "UACC-62"}, "U-251": {"test_system": "U-251"}, "MCF7": {"test_system": "MCF7"}, "NCI-H23": {"test_system": "NCI-H23"}, "HCT-15": {"test_system": "HCT-15"}, "EKVX": {"test_system": "EKVX"}, "MOLT-4": {"test_system": "MOLT-4"}, "A498": {"test_system": "A498"}, "SF-295": {"test_system": "SF-295"}, "SK-OV-3": {"test_system": "SK-OV-3"}, "CAKI-1": {"test_system": "CAKI-1"}, "MDA-MB-231": {"test_system": "MDA-MB-231"}, "Malme-3M": {"test_system": "Malme-3M"}, "SNB-19": {"test_system": "SNB-19"}, "IGROV-1": {"test_system": "IGROV-1"}, "RXF 393": {"test_system": "RXF 393"}, "OVCAR-8": {"test_system": "OVCAR-8"}, "HT-29": {"test_system": "HT-29"}, "HCC 2998": {"test_system": "HCC 2998"}, "OVCAR-4": {"test_system": "OVCAR-4"}, "MDA-MB-435": {"test_system": "MDA-MB-435"}, "UACC-257": {"test_system": "UACC-257"}, "Hs-578T": {"test_system": "Hs-578T"}, "SR": {"test_system": "SR"}, "NCI-H226": {"test_system": "NCI-H226"}, "HOP-92": {"test_system": "HOP-92"}, "A549": {"test_system": "A549"}, "BT-549": {"test_system": "BT-549"}, "HCT-116": {"test_system": "HCT-116"}, "PC-3": {"test_system": "PC-3"}, "NCI/ADR-RES": {"test_system": "NCI/ADR-RES"}, "CCRF-CEM": {"test_system": "CCRF-CEM"}, "TK-10": {"test_system": "TK-10"}, "M14": {"test_system": "M14"}, "NCI-H460": {"test_system": "NCI-H460"}, "RPMI-8226": {"test_system": "RPMI-8226"}, "SK-MEL-28": {"test_system": "SK-MEL-28"}, "HOP-62": {"test_system": "HOP-62"}, "MDA-N": {"test_system": "MDA-N"}, "786-0": {"test_system": "786-0"}, "SK-MEL-2": {"test_system": "SK-MEL-2"}, "T47D": {"test_system": "T47D"}, "KM12": {"test_system": "KM12"}, "COLO 205": {"test_system": "COLO 205"}, "OVCAR-5": {"test_system": "OVCAR-5"}, "SF-268": {"test_system": "SF-268"}, "SW-620": {"test_system": "SW-620"}, "SN12C": {"test_system": "SN12C"}, "LOX IMVI": {"test_system": "LOX IMVI"}}, "note": "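Assay format: 96-well plates, 48-hour exposure. GI50 marks 50% less growth.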 The source made the active and inactive calls. No stated cut-off is given here; in the data, active = GI50 up to about 1.1 µM and inactive = higher.", "data": [{"smiles": "COC(=O)Nc1nc2ccccc2[nH]1", "note": "[CARBENDAZIM]", "values": [{"measurement": "GI50", "setting": "HL-60", "result": "4.26 µM (inactive)"}, {"measurement": "GI50", "setting": "ACHN", "result": "> 56.1 µM (inactive)"}, {"measurement": "GI50", "setting": "SF-539", "result": "5.2 µM (inactive)"}, {"measurement": "GI50", "setting": "UO-31", "result": "20.7 µM (inactive)"}, {"measurement": "GI50", "setting": "SK-MEL-5", "result": "6.03 µM (inactive)"}, {"measurement": "GI50", "setting": "DU-145", "result": "5.18 µM (inactive)"}, {"measurement": "GI50", "setting": "SNB-75", "result": "9.38 µM (inactive)"}, {"measurement": "GI50", "setting": "OVCAR-3", "result": "4 µM (inactive)"}, {"measurement": "GI50", "setting": "UACC-62", "result": "4 µM (inactive)"}, {"measurement": "GI50", "setting": "U-251", "result": "4.86 µM (inactive)"}, {"measurement": "GI50", "setting": "MCF7", "result": "5.07 µM (inactive)"}, {"measurement": "GI50", "setting": "NCI-H23", "result": "14.2 µM (inactive)"}, {"measurement": "GI50", "setting": "HCT-15", "result": 3.37, "unit": "µM"}, {"measurement": "GI50", "setting": "EKVX", "result": "> 52.7 µM (inactive)"}, {"measurement": "GI50", "setting": "MOLT-4", "result": "6.34 µM (inactive)"}, {"measurement": "GI50", "setting": "A498", "result": "> 100 µM (inactive)"}, {"measurement": "GI50", "setting": "SF-295", "result": "4.72 µM (inactive)"}, {"measurement": "GI50", "setting": "SK-OV-3", "result": "3.44 µM (inactive)"}, {"measurement": "GI50", "setting": "CAKI-1", "result": "11.4 µM (inactive)"}, {"measurement": "GI50", "setting": "MDA-MB-231", "result": "27.8 µM (inactive)"}, {"measurement": "GI50", "setting": "Malme-3M", "result": "> 43.9 µM (inactive)"}, {"measurement": "GI50", "setting": "SNB-19", "result": "10.1 µM (inactive)"}, {"measurement": "GI50", "setting": "IGROV-1", "result": "8.17 µM (inactive)"}, {"measurement": "GI50", "setting": "RXF 393", "result": "17.5 µM (inactive)"}, {"measurement": "GI50", "setting": "OVCAR-8", "result": "10.8 µM (inactive)"}, {"measurement": "GI50", "setting": "HT-29", "result": "4.66 µM (inactive)"}, {"measurement": "GI50", "setting": "HCC 2998", "result": "5.37 µM (inactive)"}, {"measurement": "GI50", "setting": "OVCAR-4", "result": "> 47.4 µM (inactive)"}, {"measurement": "GI50", "setting": "MDA-MB-435", "result": "2.34 µM (inactive)"}, {"measurement": "GI50", "setting": "UACC-257", "result": "> 61 µM (inactive)"}, {"measurement": "GI50", "setting": "Hs-578T", "result": "12.9 µM (inactive)"}, {"measurement": "GI50", "setting": "SR", "result": "7.33 µM (inactive)"}, {"measurement": "GI50", "setting": "NCI-H226", "result": "10.4 µM (inactive)"}, {"measurement": "GI50", "setting": "HOP-92", "result": "> 100 µM (inactive)"}, {"measurement": "GI50", "setting": "A549", "result": "6.97 µM (inactive)"}, {"measurement": "GI50", "setting": "BT-549", "result": "10.1 µM (inactive)"}, {"measurement": "GI50", "setting": "HCT-116", "result": "4.21 µM (inactive)"}, {"measurement": "GI50", "setting": "PC-3", "result": "15.3 µM (inactive)"}, {"measurement": "GI50", "setting": "NCI/ADR-RES", "result": "3.13 µM (inactive)"}, {"measurement": "GI50", "setting": "CCRF-CEM", "result": "21.2 µM (inactive)"}, {"measurement": "GI50", "setting": "TK-10", "result": "> 49.2 µM (inactive)"}, {"measurement": "GI50", "setting": "M14", "result": "4.69 µM (inactive)"}, {"measurement": "GI50", "setting": "NCI-H460", "result": "3.36 µM (inactive)"}, {"measurement": "GI50", "setting": "RPMI-8226", "result": "5.25 µM (inactive)"}, {"measurement": "GI50", "setting": "SK-MEL-28", "result": "16.2 µM (inactive)"}, {"measurement": "GI50", "setting": "HOP-62", "result": "11.1 µM (inactive)"}, {"measurement": "GI50", "setting": "MDA-N", "result": "2.98 µM (inactive)"}, {"measurement": "GI50", "setting": "786-0", "result": "9.53 µM (inactive)"}, {"measurement": "GI50", "setting": "SK-MEL-2", "result": "17.8 µM (inactive)"}, {"measurement": "GI50", "setting": "T47D", "result": "9.51 µM (inactive)"}, {"measurement": "GI50", "setting": "KM12", "result": "4.26 µM (inactive)"}, {"measurement": "GI50", "setting": "COLO 205", "result": "5.05 µM (inactive)"}, {"measurement": "GI50", "setting": "OVCAR-5", "result": "49.4 µM (inactive)"}, {"measurement": "GI50", "setting": "SF-268", "result": "> 51.3 µM (inactive)"}, {"measurement": "GI50", "setting": "SW-620", "result": "3.57 µM (inactive)"}, {"measurement": "GI50", "setting": "SN12C", "result": "21.9 µM (inactive)"}, {"measurement": "GI50", "setting": "LOX IMVI", "result": "8.73 µM (inactive)"}]}]}
